Assay results published in PubChem BioAssay (NCI).
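Results reflect a 48-hour exposure of cells in 96-well plates to compound at five concentrations. TGI denotes the concentration required for complete inhibition of growth.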

Legend:
Assay in all cases: growth of human tumour cells (NCI), 48 h
UACC-62 melanoma = tested on: UACC-62 melanoma
PC-3 prostate = tested on: PC-3 prostate
OVCAR-5 ovarian = tested on: OVCAR-5 ovarian
SN12C renal = tested on: SN12C renal
SK-MEL-28 melanoma = tested on: SK-MEL-28 melanoma
RXF 393 renal = tested on: RXF 393 renal
SF-295 CNS = tested on: SF-295 CNS
HCC-2998 colon = tested on: HCC-2998 colon
NCI-H23 lung = tested on: NCI-H23 lung
SF-268 CNS = tested on: SF-268 CNS
MDA-N = tested on: MDA-N
SNB-19 CNS = tested on: SNB-19 CNS
MDA-MB-231 breast = tested on: MDA-MB-231 breast
OVCAR-4 ovarian = tested on: OVCAR-4 ovarian

SMILES | TGI (UACC-62 melanoma) [µM] | TGI (PC-3 prostate) [µM] | TGI (OVCAR-5 ovarian) [µM] | TGI (SN12C renal) [µM] | TGI (SK-MEL-28 melanoma) [µM] | TGI (RXF 393 renal) [µM] | TGI (SF-295 CNS) [µM] | TGI (HCC-2998 colon) [µM] | TGI (NCI-H23 lung) [µM] | TGI (SF-268 CNS) [µM] | TGI (MDA-N) [µM] | TGI (SNB-19 CNS) [µM] | TGI (MDA-MB-231 breast) [µM] | TGI (OVCAR-4 ovarian) [µM]
Cc1ccc(N2C(N)=C(C#N)C(C#N)(C#N)C2c2ccccc2)cc1 (stereo not given) | 26.7 | 44.9 | 32.4 | 30.9 | 22.3 | 25.3 | 60.3 | 25.8 | 38.1 | 65.9 | 12 | 34.5 | 25.3 | 26.9
C#CC1NC(=O)C1N(CC)CC (stereo not given) | > 100 | > 100 | > 100 | > 100 | > 100 | > 100 | > 100 | > 100 | > 100 | > 100 | > 100 | > 100 | > 100 | > 100
O=Nc1c(O)cc(Nc2cccnc2)c2ccccc12 | 55.6 | > 100 | > 100 | > 100 |  | > 100 | > 100 | 95.4 | 76 | 53.4 | 76.6 | 8.39 | 47.3 | > 100
CCCCCCCCC/C=C1/CC(CO)(COC(=O)c2ccccc2)OC1=O (stereo not given) | 28.1 | 23.1 | 24.6 | 26.4 | 26.6 | 31 | 21.9 | 27.8 | 28.3 | 29.8 | 20.6 | 29.1 | 26.3 | 26.5
COC1=CC(=O)C2=C(C[C@@]3(C)C(=C2)C(CO)=CC[C@H]3O)C1=O | 32.4 | 69.1 | 54.5 | 32.8 | 82.7 | 30.9 | 41.2 | 83.1 | 48.7 | 32.7 | 37.4 | > 100 | 13.2 | 31.8
Nc1nc(=S)n(-c2ccc(Cl)cc2)c2nc3ccccc3cc12 | > 100 | > 100 | > 100 | > 100 | > 100 | > 100 | > 100 | > 100 | > 100 | > 100 | > 100 | > 100 | > 100 | > 100
NC(Cc1ccc(B(O)O)cc1)C(=O)NC(CO)CO (stereo not given) | > 100 | > 100 | > 100 | > 100 | > 100 | > 100 | > 100 | > 100 | > 100 | > 100 | > 100 | > 100 | > 100 | > 100
COc1ccc(/C=C/C(=O)c2ccc(OC(=O)/C=C/c3ccccc3)cc2)cc1 | > 63.7 | > 100 | > 100 | > 69.7 | > 100 | > 100 | > 64 | 32.8 | 73.8 | > 68.1 | > 100 | > 63.4 | > 87.2 | 92.8
O=C(NCCCN1CCN(CCCNC(=O)Nc2cccc3ccccc23)CC1)Nc1cccc2ccccc12 | 11.9 | 21.5 | 28.3 | 30.7 | 28.7 | 27.6 | 27.4 | 4.58 | 33.6 | 38.8 | 30 | 48.4 | 8.21 | 44.1
Cc1csc(NNC(=O)Nc2ccccc2)n1 | > 100 | > 100 | > 100 | > 100 | > 100 | > 100 | > 100 | > 100 | > 100 | > 100 | > 100 | > 100 | > 100 | > 100
C=CC1(C)OC2(CCN(C(=O)OCC)CC2)OC1C (stereo not given) | > 100 | > 100 | > 100 |  | > 100 | > 100 | > 100 | > 100 | > 100 | > 100 | > 100 | > 100 | > 100 | > 100
COC1CC(O[C@H]2CC[C@@]3(C)[C@@H](CC[C@]4(O)[C@@H]3CC[C@]3(C)[C@@H](C(C)=O)[C@H](OC(=O)CC(C)C)[C@@H](OC(=O)c5ccccc5)[C@@]34O)C2)OC(C)C1OC1CC(OC)C(OC2OC(C)C(O)C(OC)C2O)C(C)O1 (stereo not given in full) |  | > 25 | > 25 | > 25 | > 25 | > 25 | > 25 | > 25 | > 25 | > 25 | > 25 | > 25 | > 25 | > 25
